Test results reported in US7687476B2, “Specific inhibitors of acute and chronic inflammation” (priority 2001, dated 2010).
“Also recorded” adds a separate entry of the source.

What was measured:
[1] = tested on: L-cells transfected with E-selectin; test: static adhesion of neutrophils to L-cells transfected with E-selectin (myeloperoxidase readout); format: cell-based, human; settings: for adhesion of neutrophils to E-selectin transfected L-cells: preincubation 45 min, adhesion 20 min at 37° C., static assay; for order of potency of lead compounds: proposed from the adhesion experiments
Procedure: L-cells permanently transfected with full-length E-selectin by electroporation. Human neutrophils were isolated from EDTA whole blood by density centrifugation. Purity and total number were determined by standard haematology instruments, L-cells were grown in 96-well microtiter plates.
L-cells and neutrophils were pre-incubated with respective substances for 45 min at 37° C. Neutrophils were then allowed to adhere to L-cells in the presence of different substances for 20 min at 37° C. Non-adherent cells were removed by repeated washings and the number of adherent cells determined by measuring myeloperoxidase content. Since binding of neutrophils to selectin is calcium dependent, EGTA (which chelates calcium) was used as a negative control.
L-cells and neutrophils were preincubated with decreasing concentrations of maltose, fucose, and thymidine (1 mM, 10 μM, 0.1 μM, and 1 nM) for 45 min at 37° C. Neutrophils were then allowed to adhere to L-cells in the presence of respective substances for 20 min at 37° C. Non-adherent cells were removed by repeated washings and the number of adherent cells determined by measuring myeloperoxidase content.
L-cells were grown in 96-well microtiter plates. L-cells and neutrophils were preincubated with decreasing concentrations of EGTA (10 mM, 1 mM, 0.1 mM, 10 μM) for 45 min at 37° C. Neutrophils were then allowed to adhere to L-cells in the presence of EGTA for 20 min at 37° C. Non-adherent cells were removed by repeated washings and the number of adherent cells was determined by measuring myeloperoxidase content.

TNF stimulated HUVEC = test: neutrophil adhesion to TNF stimulated HUVEC; format: cell-based, human; settings: for adhesion of neutrophils to TNF stimulated / activated HUVEC (in words) / inhibition of adhesion of neutrophils to TNF stimulated HUVEC: HUVEC stimulated with TNF 4 h; for inhibition of adhesion of neutrophils to TNF stimulated HUVEC: neutrophils preincubated 30 min at 37° C.
Procedure: To further extend the finding from L-cells the binding of neutrophils to TNF activated endothelium (HUVEC) was studied.
Endothelial cells were grown in 96-well microtiter plates to confluence. They were stimulated with TNF for 4 h at 37° C. Isolated neutrophils were incubated for 30 min at 37° C. with respective substances. The endothelial cells were washed after 4 h and 2×10^5 neutrophils were added to each well and the cells were allowed to adhere in the presence of the respective substances.

E-selectin = test: cell-ELISA of surface expression of E-selectin on stimulated endothelial cells; format: cell-based, human; settings: simultaneous incubation of endothelium with different concentrations, 4 h at 37° C.
Procedure: The substances mentioned above should block the interaction of E-selectin with it's ligand and should not have any effect on cytokine induced up-regulation of adhesion molecules. A cell-ELISA was performed to assess the surface expression of adhesion molecules. Endothelial cells were grown in microtiter plates, stimulated with TNF or IL-1 with or without respective substances for 4 h at 37° C. After stimulation the cells were washed and fixed with formaldehyde. A cell-ELISA was performed in analogy to regular ELISA using primary and secondary antibodies.

myeloperoxidase = target: T1, myeloperoxidase (Homo sapiens, UniProt P05164); test: effect on neutrophil myeloperoxidase activity; format: cell-based; settings: neutrophils, 100 μM to 10 nM, 2 hours at 37° C.
T1 construct: endogenous in cells; host or cells: human neutrophils isolated from EDTA whole blood
Procedure: Since the number of adherent neutrophils are calculated by measuring neutrophil myeloperoxidase activity, it could be argued that these substances could have a direct effect on myeloperoxidase activity and thus create a methodological artifact. Neutrophils were incubated with different concentrations of uridine, isomaltitol, and 4-thiouridine (100 μM, 10 μM, 1 μM, 100 nM, 10 nM) for 2 hours at 37° C.

[2] = tested on: Colo 201 cells / L-cells transfected with E-selectin; test: adhesion of colon cancer cells Colo 201 to L-cells transfected with E-selectin; format: cell-based; settings: E-selectin transfected L-cells (text of b26 says HUVEC)
Procedure: Although protein ligands have been characterised for the selectins, they recognise a number of carbohydrate and non-carbohydrate ligands. The hypothesis is that these compounds should block E-selectin-SLe^x interaction. To confirm this it was also tested if these substances can block adhesion of Colo 201 cells to L-cells.

T1 sequence (P05164 279-745 limits assumed): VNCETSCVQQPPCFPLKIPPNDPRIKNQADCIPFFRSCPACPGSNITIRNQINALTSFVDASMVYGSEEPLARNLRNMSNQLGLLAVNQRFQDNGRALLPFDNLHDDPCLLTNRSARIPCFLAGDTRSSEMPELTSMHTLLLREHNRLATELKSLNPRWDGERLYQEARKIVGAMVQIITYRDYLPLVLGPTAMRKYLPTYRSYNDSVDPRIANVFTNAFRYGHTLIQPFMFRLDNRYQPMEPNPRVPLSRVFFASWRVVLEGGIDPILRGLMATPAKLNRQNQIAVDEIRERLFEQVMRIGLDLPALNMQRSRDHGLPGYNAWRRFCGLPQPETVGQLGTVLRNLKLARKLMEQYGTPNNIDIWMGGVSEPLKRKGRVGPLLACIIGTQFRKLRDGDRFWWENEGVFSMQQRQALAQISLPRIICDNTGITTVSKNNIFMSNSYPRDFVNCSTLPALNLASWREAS
T1 sequence (P05164 165-273 limits assumed): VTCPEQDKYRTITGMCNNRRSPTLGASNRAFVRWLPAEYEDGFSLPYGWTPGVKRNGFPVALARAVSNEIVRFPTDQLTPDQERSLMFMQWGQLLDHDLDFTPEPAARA

O=c1[nH]c(=S)ccn1[C@@H]1O[C@H](CO)[C@@H](O)[C@H]1O [4-thiouridine]
adhesion of neutrophils to E-selectin transfected L-cells [1]: could block adhesion of neutrophils
order of potency of lead compounds [1]: 4-thiouridine>isomaltitol>uridine
adhesion of neutrophils to TNF stimulated / activated HUVEC (in words) (TNF stimulated HUVEC): dose dependent inhibition
inhibition of adhesion of neutrophils to TNF stimulated HUVEC (TNF stimulated HUVEC): 60%
concentration level at which the maximal effect on neutrophil adhesion to HUVEC occurs (TNF stimulated HUVEC; TNF stimulated HUVEC): micromolar levels
TNF induced up-regulation of E-selectin (E-selectin): did not affect TNF induced up-regulation of E-selectin
myeloperoxidase activity (myeloperoxidase): do not affect myeloperoxidase activity

OC[C@H]1O[C@H](O[C@H]2[C@H](O)[C@@H](O)C(O)O[C@@H]2CO)[C@H](O)[C@@H](O)[C@@H]1O (mixture of isomers) [Maltose, maltose, reference compound]
adhesion of neutrophils to E-selectin transfected L-cells [1]: did not affect the adhesion of neutrophils

O=C(O)CN(CCOCCOCCN(CC(=O)O)CC(=O)O)CC(=O)O [EGTA, reference compound]
adhesion of neutrophils to E-selectin transfected L-cells [1]: consistently blocks adhesion of neutrophils; also recorded: dose dependent inhibition of neutrophils adhesion to L-cells
adhesion of Colo 201 cells [2]: blocked adhesion of Colo 201 cells
adhesion of neutrophils to TNF stimulated / activated HUVEC (in words) (TNF stimulated HUVEC): blocked adhesion of neutrophils; also recorded: dose dependent inhibition of neutrophils adhesion to activated HUVEC

C[C@H](O)[C@@H](O)[C@@H](O)[C@H](O)C=O [fucose, reference compound]
adhesion of neutrophils to E-selectin transfected L-cells [1]: did not affect the adhesion of neutrophils

Cc1cn([C@H]2C[C@H](O)[C@@H](CO)O2)c(=O)[nH]c1=O [thymidine, reference compound]
adhesion of neutrophils to E-selectin transfected L-cells [1]: did not affect the adhesion of neutrophils

O=c1ccn([C@@H]2O[C@H](CO)[C@@H](O)[C@H]2O)c(=O)[nH]1 [uridine]
adhesion of neutrophils to E-selectin transfected L-cells [1]: could block adhesion of neutrophils
order of potency of lead compounds [1]: 4-thiouridine>isomaltitol>uridine
myeloperoxidase activity (myeloperoxidase): do not affect myeloperoxidase activity

OC[C@H](O)[C@@H](O)[C@H](O)[C@H](O)CO[C@H]1O[C@H](CO)[C@@H](O)[C@H](O)[C@H]1O [isomaltitol]
adhesion of neutrophils to E-selectin transfected L-cells [1]: could block adhesion of neutrophils
order of potency of lead compounds [1]: 4-thiouridine>isomaltitol>uridine
inhibition of adhesion of neutrophils to TNF stimulated HUVEC (TNF stimulated HUVEC): roughly 30%
myeloperoxidase activity (myeloperoxidase): do not affect myeloperoxidase activity
